Test results as given in BindingDB's records for doi:10.1016/0166-4328(96)00089-7 (Glaxo Research and Development, 1996).

What was measured:
[1] = target: 5-hydroxytryptamine receptor 4 (Cavia porcellus, UniProt O70528)
[2] = target: 5-hydroxytryptamine receptor 2A (Rattus norvegicus, UniProt P14842)
[3] = target: 5-hydroxytryptamine receptor 5A (Homo sapiens, UniProt P47898)
[4] = target: T1, 5-hydroxytryptamine receptor 3A (Rattus norvegicus, UniProt P35563)
T1 sequence (P35563 whole entry): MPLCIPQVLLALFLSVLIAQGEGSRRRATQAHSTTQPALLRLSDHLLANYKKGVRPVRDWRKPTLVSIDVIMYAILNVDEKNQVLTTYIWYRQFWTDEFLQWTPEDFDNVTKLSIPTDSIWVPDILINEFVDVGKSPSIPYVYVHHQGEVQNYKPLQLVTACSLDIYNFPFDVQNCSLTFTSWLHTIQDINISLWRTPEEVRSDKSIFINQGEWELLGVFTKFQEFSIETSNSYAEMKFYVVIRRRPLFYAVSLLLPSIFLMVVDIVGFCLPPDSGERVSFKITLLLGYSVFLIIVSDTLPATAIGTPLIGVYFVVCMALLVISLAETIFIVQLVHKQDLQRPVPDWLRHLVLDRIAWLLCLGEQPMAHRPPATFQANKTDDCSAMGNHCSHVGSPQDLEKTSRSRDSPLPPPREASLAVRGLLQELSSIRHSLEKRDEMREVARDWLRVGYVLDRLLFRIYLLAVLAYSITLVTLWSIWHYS

[5] = target: T2, 5-hydroxytryptamine receptor 2C (Sus scrofa, UniProt G7ZKZ7)
T2 sequence (G7ZKZ7 whole entry): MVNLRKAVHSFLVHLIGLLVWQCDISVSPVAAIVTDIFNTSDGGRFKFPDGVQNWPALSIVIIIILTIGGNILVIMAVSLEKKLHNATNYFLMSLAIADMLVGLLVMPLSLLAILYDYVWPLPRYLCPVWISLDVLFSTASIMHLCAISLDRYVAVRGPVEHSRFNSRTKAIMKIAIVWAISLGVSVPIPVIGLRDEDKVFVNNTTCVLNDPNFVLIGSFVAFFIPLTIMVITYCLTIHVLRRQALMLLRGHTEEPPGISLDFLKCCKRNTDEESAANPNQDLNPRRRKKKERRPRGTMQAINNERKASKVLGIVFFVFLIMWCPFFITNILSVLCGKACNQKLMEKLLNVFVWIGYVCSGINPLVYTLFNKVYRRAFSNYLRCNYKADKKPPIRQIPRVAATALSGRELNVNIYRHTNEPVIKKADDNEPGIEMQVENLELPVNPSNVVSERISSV

Chain of 5-hydroxytryptamine receptor 4 (O70528 whole entry): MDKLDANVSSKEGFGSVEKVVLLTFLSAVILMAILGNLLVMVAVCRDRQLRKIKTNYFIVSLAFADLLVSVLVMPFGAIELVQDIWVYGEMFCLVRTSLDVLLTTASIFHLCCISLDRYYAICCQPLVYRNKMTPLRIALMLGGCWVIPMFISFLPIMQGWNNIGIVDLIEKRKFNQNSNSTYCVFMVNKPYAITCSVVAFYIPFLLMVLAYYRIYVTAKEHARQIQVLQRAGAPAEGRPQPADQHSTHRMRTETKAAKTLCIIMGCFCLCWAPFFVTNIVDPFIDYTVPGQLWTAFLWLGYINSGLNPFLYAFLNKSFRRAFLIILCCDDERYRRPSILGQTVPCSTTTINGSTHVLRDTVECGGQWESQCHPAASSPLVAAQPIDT
Chain of 5-hydroxytryptamine receptor 5A (P47898 whole entry): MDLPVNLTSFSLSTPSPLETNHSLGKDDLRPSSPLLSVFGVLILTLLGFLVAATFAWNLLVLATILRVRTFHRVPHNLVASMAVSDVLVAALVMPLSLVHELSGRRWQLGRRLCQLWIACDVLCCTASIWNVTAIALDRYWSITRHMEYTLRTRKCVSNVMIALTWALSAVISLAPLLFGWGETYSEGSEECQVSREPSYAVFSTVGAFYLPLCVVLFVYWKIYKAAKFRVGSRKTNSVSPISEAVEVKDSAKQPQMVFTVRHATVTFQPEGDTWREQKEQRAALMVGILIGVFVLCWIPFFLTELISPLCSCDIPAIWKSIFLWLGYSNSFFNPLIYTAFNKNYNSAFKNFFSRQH
Chain of 5-hydroxytryptamine receptor 2A (P14842 whole entry): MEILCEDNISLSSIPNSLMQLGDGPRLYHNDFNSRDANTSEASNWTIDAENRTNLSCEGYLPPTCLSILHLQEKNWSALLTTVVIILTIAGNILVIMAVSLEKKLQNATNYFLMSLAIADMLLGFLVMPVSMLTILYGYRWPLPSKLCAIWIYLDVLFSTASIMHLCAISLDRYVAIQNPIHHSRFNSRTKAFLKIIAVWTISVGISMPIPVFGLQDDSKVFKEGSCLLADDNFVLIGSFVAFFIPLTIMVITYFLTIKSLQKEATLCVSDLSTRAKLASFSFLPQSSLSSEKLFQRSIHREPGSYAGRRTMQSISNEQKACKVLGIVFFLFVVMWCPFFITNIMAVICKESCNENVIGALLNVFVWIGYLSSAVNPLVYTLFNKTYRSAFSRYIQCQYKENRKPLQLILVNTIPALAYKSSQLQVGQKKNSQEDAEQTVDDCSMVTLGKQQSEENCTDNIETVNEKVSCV

Ki [1]: > 10 µM
Ki [2]: 0.0398 µM
Ki [3]: 6.31 µM
Ki [4]: 6.31 µM
Ki [5]: 0.631 µM
SMILES: COc1ccc(NC(=O)c2ccc(-c3ccc(-c4noc(C)n4)cc3C)cc2)cc1N1CCN(C)CC1 [SMR001230745]
